{"source": "patent EP4458353A1", "about": "“ANTICARIOGENIC SYNERGETIC COMPOSITION FOR ORAL CARE” (SkyLab AG, priority 2023, dated 2024)", "key": {"S. mutans biofilms": {"tested_on": "S. mutans biofilms", "experiment": "Biofilm formation on hydroxyapatite disks (CFU in resuspended biofilm)", "type": "cell-based", "conditions": "for %N Control: percentage of S. mutans CFU on the disk in control experiment; for N S.mutans (CFU/mL): resuspended biofilm from hydroxyapatite disks, 64h incubation", "procedure": "Example ? 6. Anti-biofilm activity of individual substances selected from naringenin, guava leaf extract, and lysozyme, or the composition thereof, is assessed from the rate of biofilm formation on hydroxyapatite disks, with the use of the following procedure: • 1) Prepare the heart-brain broth (DM106D, Mast Group Ltd., U.K.) and Columbian agar supplemented with defibrinated blood (OOO \"GEM\" Cat. No BP-023) in accordance with the manufacturer's instruction • 2) All stages of preparation of the bacterial culture suspensions were similar to those described in Example 1. • 3) Prepare saliva, which is required for biofilm formation and provides the bacteria adhesion to the surface of hydroxyapatite disks. […] Centrifuge the collected saliva at 12 000 rpm for 30 minutes at 4°C. Harvest the supernatant into the clean tube and subject to pasteurization at 65°C for 30 minutes followed by one more centrifugation.\nThe efficacy of saliva pasteurization is assessed from direct inoculation on Columbian blood agar. The plates are incubated under aerobic and anaerobic conditions at 37°C for 72 hours. The saliva is considered sterile if no growth of bacterial and fungal colonies is observed within 72 hours of observation.\nStore the saliva at temperature -80 °C before the use. • 4) To form the salivary film on the surface of hydroxyapatite disk put three sterile disks (sterilization by autoclaving at 132 °C for 20 min) in each of 9 Petri dishes 40 mm in diameter abd incubate in 3 mL of the pasteurized saliva at room temperature for 4 hours with gentle shaking on orbital shaker. Then remove the saliva and add 3 mL of nutritive medium containing 1.2 mL of heart-brain broth; 1.2 mL of pasteurized saliva; 0.6 mL of S. mutans suspension at concentration of 10^6 CFU/mL into the Petri dish. The formation of S. mutans biofilm on the disk surface is achieved at 37°C under the atmosphere of 5 % CO2 in the environment, with gentle shaking on orbital shaker for 16 hours. • 5) After 16-hour incubation remove old nutritive medium from the dishes and add a fresh portion of heart-brain broth containing S. mutans suspension and the pasteurized saliva. Add the active substances selected from naringenin, guava leaf extract and lysozyme or combination thereof to final concentration 0.1 or 1.0 mg/mL. Repeat the procedure of medium replacement twice daily within […] and 8 h after the first change. • 6) To remove the biofilm formed in the disk surface take the disks away from Petri dishes after the incubation for 2 days and rinse in the large volume of PBS (pH 7.2). Then place the disks into sterile Petri dishes with 3 mL of PBS (pH 7.2) and shake vigorously on the orbital shaker for 30 minutes. […]"}, "S. mutans": {"tested_on": "S. mutans", "conditions": "naringenin at concentration 200 µg/mL; cited from earlier work"}, "lysozyme": {"target": "T1, lysozyme (Gallus gallus, UniProt P00698)", "T1 construct": "Lysozyme used in all tests was 99% anhydrous lysozyme hydrochloride isolated from the egg yolks; from tissue; host or cells: eggs ('egg yolks' as printed)", "T1 sequence (P00698 19-147)": "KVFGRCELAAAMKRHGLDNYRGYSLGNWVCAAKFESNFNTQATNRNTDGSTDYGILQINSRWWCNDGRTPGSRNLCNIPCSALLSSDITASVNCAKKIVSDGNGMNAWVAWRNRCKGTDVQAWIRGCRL", "experiment": "Lysozyme and naringenin compatibility: lysozyme activity by fall of optical density of Micrococcus lysodeicticus cells", "type": "biochemical", "conditions": "added to the buffered medium with lysozyme; 30, 60, 120 minutes at 37 degrees", "procedure": "Example ? 8. Assessment of lysozyme and naringenin compatibility Potential impact of naringenin on lysozyme activity was assessed through the measurement of lysozyme activity by the method described in the patent RU2294373C2. To determine the lysozyme activity the optical density values obtained for the control wells are subtracted from the optical density values obtained for the wells, which were incubated in the presence of lysozyme. The bacterial cells Micrococcus lysodeicticus in amount corresponding to the optical density 0.6 are mixed with the equal volume of buffer containing lysozyme, naringenin, guava leaf CO2 extract, while no lysozyme is added into the control well. Then the plate is incubated for 30, 60, 120 minutes at 37 degrees, and the optical density is measured. The fall of optical density indicates the lysozyme activity. Then the final density value is subtracted from the initial density value followed by normalization for incubation time and the enzyme concentration in accordance with the procedure described in RU2294373C2."}, "[1]": {"tested_on": "Streptococcus mutans No 22081", "experiment": "Growth of planktonic culture in liquid nutritive medium (CFU count after 5 h)", "type": "cell-based", "conditions": "S. mutans planktonic culture; 1 mg/mL; 5 h incubation", "procedure": "Example ? 3. Antibacterial activity of naringenin, guava leaf extract and lysozyme was assessed from the growth pattern of the reference strain Streptococcus mutans No 22081 (UNU Collection under I. I. Mechnikov Research Institute if Vaccines and sera) in liquid nutritive medium according to the procedure: • 1) Prepare the heart-brain broth (DM106D, Mast Group Ltd., U.K.) and Columbian agar supplemented with defibrinated blood (OOO \"GEM\" Cat. No BP-023) in accordance with the manufacturer's instruction. • 2) Using microbiological loop prepare the suspension (at concentration 1.5·10^8 CFU/mL) of 24 hour agar culture of S. mutans in the sterile buffered saline (BS) under visual control with McFarland standard 0.5. […] Prepare the composition of naringenin 0.33 mg/mL, lysozyme 0.33 mg/mL, and guava leaf extract 0.33 mg/mL. • 4) Put the plate with the samples into the incubator with 5% CO2 atmosphere, and incubate at 37°C for 5 h on shaking apparatus. • 5) After the 5 h incubation reinoculate the agar nutritive medium with the planktonic S. mutans culture to count CFU per 1 mL of medium. • 6) Perform optical density (OD) measurements using multimodal microplate reader at the wavelength 620 nm before the incubation (OD0) and then after the culture growth for 5 h ODt=5). […]"}}}
{"smiles": "O=C1C[C@@H](c2ccc(O)cc2)Oc2cc(O)cc(O)c21", "note": "[Naringenin, naringenin]", "values": [{"measurement": "%N Control", "setting": "S. mutans biofilms; Csubstance 0.1 mg/mL", "result": 66.7, "unit": "%"}, {"measurement": "N S.mutans (CFU/mL)", "setting": "S. mutans biofilms; Csubstance 0.1 mg/mL", "result": "2.8·10^6 CFU/mL"}, {"measurement": "%N Control", "setting": "S. mutans biofilms; Csubstance 1.0 mg/mL", "result": 50.0, "unit": "%"}, {"measurement": "N S.mutans (CFU/mL)", "setting": "S. mutans biofilms; Csubstance 1.0 mg/mL", "result": "2.1·10^6 CFU/mL"}, {"measurement": "biofilm formation", "setting": "S. mutans", "result": "virtually completely inhibited"}, {"measurement": "effect on lysozyme activity", "setting": "lysozyme", "result": "neither affect lysozyme nor decrease the lysozyme activity"}, {"measurement": "% of CFU obtained for control", "setting": "[1]", "result": 4.8, "unit": "%"}, {"measurement": "∑ CFU, mL", "setting": "[1]", "result": "4.3x10^7 CFU, mL"}]}
